Results on 2 molecules are retold here after patent US7351726B2, “Substituted oxadiazolidinediones” (Wyeth, priority 2003, dated 2008).

One series concerns the target human PAI-1 (Homo sapiens, UniProt P05121). Nature of the series: Assay for determining IC50 of inhibition of PAI-1 (tPA-coated plate, antibody detection of active PAI-1). The class given is binding. Conditions: active human PAI-1 bound to tPA-coated plate; pH 7.5; compound 1-50 μM. As to the method:
This assay is based upon the non-SDS dissociable interaction between tPA and active PAI-1. Assay plates are initially coated with human tPA (10 μg/ml). Substituted oxadiazolidinedione of the present invention are dissolved in DMSO at 10 mM, then diluted with physiologic buffer (pH 7.5) to a final concentration of 1-50 μM. WAY compounds are incubated with human PAI-1 (50 ng/ml) for 15 minutes at room temperature. The tPA-coated plate is washed with a solution of 0.05% Tween 20 and 0.1% BSA, then the plate is blocked with a solution of 3% BSA. An aliquot of the substituted oxadiazolidinedione/PA-1 solution is then added to the tPA-coated plate, incubated at room temperature for 1 hour, and washed. Active PAI-1 bound to the plate is assessed by adding an aliquot of a 1:1000 dilution of the 33B8 monoclonal antibody against human PAI-1, and incubating the plate at room temperature for 1 hour (Molecular Innovations, Royal Oak, Mich.). […] The plate is incubated 45 minutes at room temperature, and color development is determined at OD405nm. The quantitation of active PAI-1 bound to tPA at varying concentrations of substituted oxadiazolidinedione is used to determine the IC50. Results are analyzed using a logarithmic best-fit equation. The assay sensitivity is 5 ng/ml of human PAI-1 as determined from a standard curve ranging from 0-100 ng/ml.

Series [1] has as its target T1, recombinant human plasminogen activator inhibitor-1 (PAI-1) (Homo sapiens, UniProt P05121).
T1 construct: purchased Molecular Innovations, Royal Oak, Mich
In words: Primary screen for PAI-1 inhibition (chromogenic tPA activity assay). Conditions: 100 μM compound; 140 nM PAI-1, 70 nM tPA; pH 6.6. The class given is biochemical. The procedure: Test compounds are dissolved in DMSO at a final concentration of 10 mM, then diluted 100× in physiologic buffer. The inhibitory assay is initiated by the addition of the substituted oxadiazolidinedione (1-100 μM final concentration, maximum DMSO concentration of 0.2%) in a pH 6.6 buffer containing 140 nM recombinant human plasminogen activator inhibitor-1 (PAI-1; Molecular Innovations, Royal Oak, Mich.). Following a 1 hour incubation at room temperature, 70 nM of recombinant human tissue plasminogen activator (tPA) is added, and the combination of the substituted oxadiazolidinedione, PAI-1 and tPA is incubated for an additional 30 minutes. Following the second incubation, Spectrozyme-tPA (American Diagnostica, Greenwich, CT), a chromogenic substrate for tPA, is added and absorbance read at 405 nm at 0 and 60 minutes. Relative PAI-1 inhibition is equal to the residual tPA activity in the presence of WAY and PAI-1. Control treatments include the complete inhibition of tPA by PAI-1 at the molar ratio employed (2:1), and the absence of any effect of the substituted oxadiazolidinedione on tPA alone.

Each structure is given as a SMILES string.

T1 sequence (P05121 24-402): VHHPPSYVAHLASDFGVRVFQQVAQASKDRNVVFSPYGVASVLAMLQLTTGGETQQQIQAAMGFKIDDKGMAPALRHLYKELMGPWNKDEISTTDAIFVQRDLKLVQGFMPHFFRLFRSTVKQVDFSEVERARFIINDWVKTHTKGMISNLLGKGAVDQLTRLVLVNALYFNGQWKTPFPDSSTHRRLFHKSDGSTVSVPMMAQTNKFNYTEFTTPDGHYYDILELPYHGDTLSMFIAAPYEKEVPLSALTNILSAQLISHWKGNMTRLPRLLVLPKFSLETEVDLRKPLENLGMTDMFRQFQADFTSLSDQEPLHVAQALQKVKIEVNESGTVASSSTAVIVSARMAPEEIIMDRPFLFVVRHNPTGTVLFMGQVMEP
Chain of human PAI-1 (P05121 24-402): as above

In turn, `CC/C(=C/Cn1oc(=O)[nH]c1=O)c1ccc2c(Cc3ccccc3)c(CC)oc2c1` [Compound 1, Z-2-[-3-(3-Benzyl-2-ethyl-benzofuran-6-yl)-pent-2-enyl]-[1,2,4]oxadiazolidine-3,5-dione] came in with a melting point of 118 to 120 °C. Also, on human PAI-1, half-maximal inhibition (IC50) required 9.3 µM.

Regarding `CC/C(=C\Cn1oc(=O)[nH]c1=O)c1ccc2c(Cc3ccccc3)c(CC)oc2c1` [Compound 2, E-2-[-3-(3-Benzyl-2-ethyl-benzofuran-6-yl)-pent-2-enyl]-[1,2,4]oxadiazolidine-3,5-dione], the inhibition at 100 µM in series [1] came out at 39%.
